In patent publication US10968214B2, “KRas G12C inhibitors” (Eli Lilly and Company, priority 2018, dated 2021) one finds IC50 and inhibition data, which are given here for one molecule.

Structures are written as SMILES. Where two headings read alike, the source gives them in different places.

The target in assay [1] is KRas G12C (Homo sapiens, UniProt P01116, G12C). The assay is described as follows: KRas G12C Probe Occupancy TR-FRET Assay. In kind it is binding. As to conditions: read-out: IC50. The method, then: Inhibitors are tested in dose response format from 10 mM stocks in 100% DMSO. The Labycyte Echo® 555 is used to dilute and transfer 100 nL per well containing a 10 point, 2.8-fold serial dilution to an assay plate. […] The signal ratio (em at 665/em at 615) is converted to percent inhibition using the following equation: % Inhibition=100−[(Test Compound Signal−Median Minimum Signal)/(Median Maximum Signal−Median Minimum Signal)×100].
Chain of KRas G12C (P01116 1-188 isoform P01116-2 G12C): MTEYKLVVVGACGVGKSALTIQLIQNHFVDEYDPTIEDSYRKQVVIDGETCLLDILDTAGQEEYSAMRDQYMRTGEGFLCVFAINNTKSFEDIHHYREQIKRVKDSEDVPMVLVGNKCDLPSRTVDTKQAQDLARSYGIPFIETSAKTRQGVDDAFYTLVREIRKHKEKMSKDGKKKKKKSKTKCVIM

For assay [2], the system named is MIA Paca-2. The assay can be described thus: Combination 4 day growth assay (Cell TiterGlo), MIA Paca-2. As to conditions: Homo sapiens, MIA PaCa-2, 96 h, single treatment, read-out: Absolute IC50. In kind it is cell-based. The method, then: Cell lines for this study are obtained from ATCC and grown under ATCC recommended conditions, except for LXFA-983L, which is obtained from Oncotest/Charles Rivers Laboratories, Wilmington, Mass. and D122-96, which is obtained from L. Eisenbach (Weizman Institute of Science, Rehovot, Israel)—both grown under recommended conditions. […] The proliferation assay is performed as a 4 day growth assay using Cell TiterGlo® as the readout. Briefly, cells are plated in 96-well cell culture plates and allowed to adhere overnight at 37° C. The following day, cells are treated with compounds, either single treatments or combination treatments. First, the testing compounds are serially diluted in DMSO, followed by dilution into media as a 5× concentration with 1% DMSO, and finally added to cells in media to dilute to 1×. The cells are incubated at 37° C. for 4 more days. At the end of the incubation period, Cell TiterGlo® reagent is mixed and added to the wells. After 10 minutes, the luminescence is read by a Perkin Elmer Envision instrument. Absolute IC50 values generated by a 4-parameter logistics model for the single and combination treatments are generated, followed by combination indexes for each combination treatment and cell line. The combination IC50 values are adjusted based on the total concentration of each compound when added together. […] The combination index (CI) measures the degree to which the potency of a combination therapy differs from the expected-if-additive potency and is based on the Loewe definition of additivity.
[formula] Where • CAy and CBy are the concentrations of therapies A and B that produce an effect, y, when given in combination • ICAy and ICBy are the concentrations of A and B that produce an effect, y, when given individually The biological interpretation of the combination index is as follows: synergistic if the combination index <0.5, additive if the combination index is between 0.5 and 2, and antagonistic if the combination index is >2.
In general terms: In ATP-based viability assays light output follows the ATP content of the culture.

Assay [3] concerns pMEK in H2122 xenograft tumors. The assay is described as follows: In vivo target inhibition/PD, H2122 xenograft, pMEK. The following applies: Mus musculus, NCI-H2122; for inhibition at 10 mg/kg: 10 mg/kg single dose. The method, then:
To evaluate in vivo target inhibition and anti-tumor efficacy of a compound, Human lung cancer cells, H358 or H2122 are implanted into nude mice xenograft tumor models. Either H358 or H2122 cells (10×10^6 in a 1:1 Matrigel® mix, 0.2 mL total volume) are implanted by subcutaneous injection in hind leg of nude female mice (Harlan Laboratories). A total of 5 mice each group are used for efficacy study, and a total of 3-4 mice each group are used for target engagement and PD study. Treatment is initiated with oral administration (gavage) of a test compound or vehicle (20% Captisol®, 25 mM phosphate, pH 2.0 in 0.2 mL volume when the tumor size reaches approximately […]. Tumor growth and body weight are monitored over time to evaluate efficacy and signs of toxicity. Bidimensional measurements of tumors are performed twice a week and tumor volumes are calculated based on mid-axis length and mid-axis width. Tumor volume data are transformed to a log scale to equalize variance across time and treatment groups. The log volume data are analyzed with a two-way repeated measures analysis of variance by time and treatment using the mixed procedures in SAS software (version 8.2). The correlation model for the repeated measures is spatial power. Treated groups are compared to the control group at each time point. The mixed procedure is also used separately for each treatment group to calculate adjusted means and standard errors at each time point. Both analyses account for the autocorrelation within each animal. The adjusted means and standard errors are plotted for each treatment group versus time.
For in vivo target inhibition and PD analysis, tumors are ground by mortar and pestle on dry ice and tumor fragments are added to 800 μL of lysis buffer containing 1% Triton X100, 25 mM Tris pH 7.5, 150 mM NaCl, 1 mM EDTA, and 1 mM EGTA with Halt protease and phosphatase inhibitor cocktail (Thermo Scientific, cat. no. 1861281) in lysing matrix D tubes (MP Biomedical®, cat. no. 6913-500) with one additional large bead (MP Biomedical® ¼″ ceramic sphere bead cat. no. 6540-412) per tube. Tumor fragments are homogenized in a Thermo Bio101® fast prep (FP120) at setting 4 for […] while cold for a total of 2 times. Lysates are spun at 14,000 rpm for 10 min at 4° C. to clarify. Protein estimation is done on the lysate supernatant using a BioRad Dc® protein assay and lysates are diluted in complete lysis/binding buffer from the Ras GTPase Chemi ELISA Kit® (Active Motif, cat. no. 52097). The active KRas ELISA was performed as follows: Glutathione-coated ELISA wells were incubated with diluted RAF1-GST in complete lysis/binding buffer for 1 hr at 4° C. with gentle agitation. Wells are washed 3 times with wash buffer and 100 μg of lysates are added to each well and incubated at RT for 1 hr with mild agitation. The wells are washed an additional 3 times, then primary antibody, diluted in antibody binding buffer, is added to each well. The plates are incubated for 1 hr. The wells are washed 3 more times before adding HRP-conjugated secondary antibody, diluted in antibody binding buffer, to each well. The plates are incubated at RT for 1 hr. ELISA wells are washed 4 times, chemiluminescent reagents is added and then luminescence is read. For pERK Meso Scale Discovery ELISA, 25 μg of protein containing 0.1% SDS is used; for pMEK Meso Scale Discovery ELISA, 50 μg of protein without SDS is used. Meso Scale Discovery Whole Cell Lysate Kits for pERK and pMEK are provided by Meso Scale Discovery.
After a single dose, the tumor samples are harvested at different time points. The tumor lysates are prepared as described above. The inhibition of pERK, pMEK, and active KRas is measured as described above.

In the case of `C=CC(=O)N1CCN(c2ncnc3c(F)c(-c4ccc(F)c5sc(N)nc45)c(Cl)cc23)CC1` [Example 1, 1-{4-[7-(2-Amino-7-fluoro-1,3-benzothiazol-4-yl)-6-chloro-8-fluoroquinazolin-4-yl]piperazin-1-yl}prop-2-en-1-one], the IC50 (commonly the concentration at which inhibition is half-maximal) was 25 nM in assay [1] (5 min incubation), 24 nM in assay [1] (60 min incubation) and 22 nM in assay [2]. Besides, the inhibition (commonly the change of the read-out against control, counted positive when it falls) at 10 mg/kg in assay [3] (H2122 xenograft, 2 hr, read-out: % Inhibition pMEK) is 45.9%; in assay [3] (H2122 xenograft, 4 hr, read-out: % Inhibition pMEK), 60.4%; in assay [3] (H2122 xenograft, 8 hr, read-out: % Inhibition pMEK) it was 25.7%; in assay [3] (H2122 xenograft, 12 hr, read-out: % Inhibition pMEK) it was -0.4%; in assay [3] (H2122 xenograft, 24 hr, read-out: % Inhibition pMEK), -8.4%; in assay [3] (H2122 xenograft, from 2-12 hr, read-out: pMEK inhibition), 0 to 60%. Also, the inhibition at 30 mg/kg in assay [3] (H2122 xenograft, 30 mg/kg single dose, 2 hr, read-out: % Inhibition pMEK) was 62.4%; in assay [3] (H2122 xenograft, 30 mg/kg single dose, 4 hr, read-out: % Inhibition pMEK), 77.5%; in assay [3] (H2122 xenograft, 30 mg/kg single dose, 8 hr, read-out: % Inhibition pMEK), 72.2%; in assay [3] (H2122 xenograft, 30 mg/kg single dose, 12 hr, read-out: % Inhibition pMEK), 44.7%; in assay [3] (H2122 xenograft, 30 mg/kg single dose, 24 hr, read-out: % Inhibition pMEK), -15.5%; in assay [3] (read-out: pMEK inhibition), 45 to 78%. Besides, in assay [3] (H2122 xenograft, 100 mg/kg single dose, 4 hr), the inhibition at 100 mg/kg turned out to be 79.7%.
